The target in test [1] is T1, CD80/PD-L1 binding (Homo sapiens, UniProt Q9NZQ7).
T1 construct: purchased Sino Biological Inc. 10084-H02H-100 (PD-L1-Fc); 10698-H08H-100 (His-CD80)
The test is described as follows: HTRF inhibition of CD80/PD-L1 binding in vitro. The conditions noted are these: His-CD80 100 nM, PD-L1-Fc 2 nM, read-out: IC50 inhibiting CD80/PD-L1 binding in vitro. The text has this: In addition to PD-1, PD-L1 can also exert immunosuppressive activity by binding to CD80. Similarly, in vitro experiments of binding or binding inhibition of CD80 and PD-L1 can also be measured by homogeneous time-resolved fluorescence (HTRF). When the anti-hFc-Eu^3+ antibody and anti-His-XL665 antibody were bound to the hFC tag fused to PD-L1 and the His tag fused to CD80 respectively, and excited with a 320 nm wavelength laser, the binding of PD-L1 and CD80 enabled energy to be transferred from the Eu element to the XL665 fluorescein, which was excited to emit light. When the inhibitor of the interaction between PD-L1 and CD80 was added, the combination of the two was destroyed, so that the distance between Eu and XL665 was far away, the energy cannot be transferred, and XL665 would not be excited.
Recombinant human CD80 protein with His tag (His-CD80 protein, Cat #: 10698-H08H-100), and recombinant human PD-L1-Fc fusion protein (PD-L1-Fc fusion protein, Cat #: 10084-H02H-100) were purchased from Sino Biological Inc., anti-hFc-Eu^3+ antibody and anti-His-XL665 antibody were purchased from Cisbio Company, and other related reagents such as dilution buffer (Diluent buffer 5, Cat #: 62DL5DDC), detection buffer (PPI-Europium detection buffer, Cat #: 61DB9RDF) were purchased from Cisbio Company. Fluorescence detection instrument Tecan (Spark 10 M) was purchased from Switzerland Tecan Company.
(1) Experimental preparation: The test compound was diluted with dilution buffer into different concentration gradients (the highest final concentration in 20 μL final reaction system was 10 μM), His-CD80 protein was diluted to 800 nM (the final concentration in 20 μL final reaction system was 100 nM), and the PD-L1-Fc fusion protein was diluted to 16 nM (final concentration was 2 nM). The anti-His-XL665 antibody and anti-hFc-Eu^3+ antibody were respectively diluted 20 times and 100 times using the detection buffer according to the reagent requirements.
(2) 5 μL of test compound, 2.5 μL of Hid-CD80 protein and 2.5 μL of […] solution were mixed, and incubated at room temperature for 15 min. Then the system was added with 5 μL of anti-His-XL665 antibody and 5 μL of anti-hFc-Eu^3+ antibody, incubated for another 3 h, and then detected.
(3) When detecting the reaction, a control group was provided, including a 0% inhibition positive control without adding test compounds and a 100% inhibition negative control without adding CD-80 protein. All detections were performed with duplicates.
(4) The fluorescence signal of each well was measured using a fluorescence detector Tecan (Spark 10M) at an excitation wavelength of 320 nm, and emission wavelengths of 620 nm and 665 nm, respectively. The intensity of the mutual binding of CD80 and PD-L1 referred to the ratio of fluorescence signals Em665/Em620.
(5) The binding inhibition rate of the test compound was calculated as follows: Inhibition rate (%)=[1−(Fluorescence signal ratio of detection well-fluorescence signal ratio of 100% inhibition negative control)]/(fluorescence signal ratio of 0% inhibition positive control-fluorescence signal ratio of 100% inhibition negative control)×100%. After calculating the inhibition rate on CD80/PD-L1 binding of the test compounds with different concentration gradients, the 50% inhibitory concentration (IC50) was calculated.
For orientation: Time-resolved FRET reads energy transfer from a long-lived donor to a nearby acceptor.

The target of test [2] is T2, PD-1/PD-L1 binding (Homo sapiens, UniProt Q9NZQ7).
T2 construct: purchased Sino Biological Inc. 10084-H02H-100 (PD-L1-Fc); 10377-H08H-50 (His-PD-1)
T2 sequence (Q9NZQ7 19-239 limits assumed): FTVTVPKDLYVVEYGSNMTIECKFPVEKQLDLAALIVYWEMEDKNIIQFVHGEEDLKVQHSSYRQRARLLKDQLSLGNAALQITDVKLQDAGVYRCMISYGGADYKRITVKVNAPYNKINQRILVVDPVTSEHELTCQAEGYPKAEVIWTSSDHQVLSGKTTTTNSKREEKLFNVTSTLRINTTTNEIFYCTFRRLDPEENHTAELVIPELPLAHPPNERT
The experiment in a line: HTRF inhibition of PD-1/PD-L1 binding in vitro. The conditions noted are these: His-PD-1 100 nM, PD-L1-Fc 2 nM, read-out: IC50 inhibiting PD-1/PD-L1 binding in vitro. The text has this: Homogeneous Time-Resolved Fluorescence (HTRF): This method used the recombinant human PD-L1 protein fused to express the hFc tag and the recombinant human PD-1 protein fused to express the His tag, both of which were interacting ligands and receptors. When the anti-hFc antibody containing Eu element chelation marker and the anti-His antibody labeled with XL665 fluorescein were bound with the above two corresponding labels, and excited by a laser with a wavelength of 320 nm, the ligand-receptor binding enabled the energy to be transferred from the Eu element to the XL665 fluorescein, which was excited to emit light at a wavelength of 665 nm. However, when an inhibitor of the interaction between PD-L1 and PD-1 was added, the binding of the ligand to the receptor was destroyed, so that the distance between Eu and XL665 was far away, the energy cannot be transferred, and XL665 would not be excited.
Recombinant human PD-1 protein with His tag (His-PD-1 protein, Cat #: 10377-H08H-50), and recombinant human PD-L1-Fc fusion protein (PD-L1-Fc fusion protein, Cat #: 10084-H02H-100) were purchased from Sino Biological Inc., […] and anti-His-XL665 antibody were purchased from Cisbio Company, and other related reagents such as dilution buffer (Diluent buffer 5, Cat #: 62DL5DDC), detection buffer (PPI-Europium detection buffer, Cat #: 61DB9RDF) were purchased from Cisbio Company. Fluorescence detection instrument Tecan (Spark 10 M) was purchased from Switzerland Tecan Company.
(1) Experimental preparation: The test compound was diluted with dilution buffer into different concentration gradients (the highest final concentration in 20 μL final reaction system was 10 μM), His-PD-1 protein was diluted to 800 nM (the final concentration in 20 μL final reaction system was 100 nM), and the PD-L1-Fc fusion protein was diluted to 16 nM (final concentration was 2 nM). The anti-His-XL665 antibody and anti-hFc-Eu^3+ antibody were respectively diluted 20 times and 100 times using the detection buffer according to the reagent requirements.
(2) 5 μL of test compound, 2.5 μL of PD-L1-Fc fusion protein and 2.5 μL of His-PD-1 protein solution were mixed, and incubated at room temperature for 15 min. Then the system was added with 5 μL of anti-His-XL665 antibody and 5 μL of anti-hFc-Eu^3+ antibody, incubated for another 3 h, and then detected.
(3) When detecting the reaction, a control group was also provided, including a 0% inhibition positive control without adding test compounds and a 100% inhibition negative control without adding PD-1 protein. All detections were performed with duplicates.
(4) The fluorescence signal of each well was measured using a fluorescence detector Tecan (Spark 10M) at an excitation wavelength of 320 nm, and emission wavelengths of 620 nm and 665 nm, respectively. The intensity of the mutual binding of PD-1 and PD-L1 referred to the ratio of fluorescence signals Em665/Em620.
(5) The binding inhibition rate of the test compound was calculated as follows: Inhibition rate (%)=[1−(Fluorescence signal ratio of detection well-fluorescence signal ratio of 100% inhibition negative control)]/(fluorescence signal ratio of 0% inhibition positive control-fluorescence signal ratio of 100% inhibition negative control)×100%. After calculating the inhibition rate on PD-1/PD-L1 binding of the test compounds with different concentration gradients, the 50% inhibitory concentration (IC50) was calculated.

T1 sequence (Q9NZQ7 19-239 limits assumed): as above

Regarding `[2H]C([2H])([2H])OCC12CCC(CCN3CCc4c(nc(C(=O)Nc5cccc(-c6cccc(NC(=O)c7nc8c(n7C)CCN(CCC79CCC(C(=O)O)(CC7)C9)C8)c6Cl)c5C)n4C)C3)(CC1)C2` [Compound I-4, 4-(2-(2-((2-chloro-3′-(5-(2-(4-((methoxy-d3)methyl)bicyclo[2.2.1]heptane-1-yl)ethyl)-1-methyl-4,5,6,7-tetrahydro-1H-imidazo[4,5-c]pyridine-2-carboxamido)-2′-methyl-[1,1′-biphenyl]-3-yl)carbamoyl)-1-methyl-1,4,6,7-tetrahydro-5H-imidazo[4,5-c]pyridin-5-yl)ethyl)bicyclo[2.2.1]heptane-1-carboxylic acid], the values for the IC50 in test [1] and in test [2] were 1.75 nM and 2.8 nM, respectively.
Turning to `[2H]C([2H])([2H])OCC12CCC(CCN3CCc4c(nc(C(=O)Nc5cccc(-c6cccc(NC(=O)c7nc8c(n7C([2H])([2H])[2H])CCN(CCC79CCC(C(=O)O)(CC7)C9)C8)c6Cl)c5Cl)n4C([2H])([2H])[2H])C3)(CC1)C2` [Compound I-5, 4-(2-(2-((2,2′-dichloro-3′-(5-(2-(4-((methoxy-d3)methyl)bicyclo[2.2.1]heptane-1-yl)ethyl)-1-(methyl-d3)-4,5,6,7-tetrahydro-1H-imidazo[4,5-c]pyridine-2-carboxamido)-[1,1′-biphenyl]-3-yl)carbamoyl)-1-(methyl-d3)-1,4,6,7-tetrahydro-5H-imidazo[4,5-c]pyridin-5-yl)ethyl)bicyclo[2.2.1]heptane-1-carboxylic acid], the IC50 in test [1] is 1.12 nM; in test [2] it was 1.02 nM.
Taken in the same sequence, the figures for `[2H]C([2H])([2H])n1c(C(=O)Nc2cccc(-c3cccc(NC(=O)c4nc5c(n4C([2H])([2H])[2H])CCN(CCC46CCC(C(=O)O)(CC4)C6)C5)c3Cl)c2Cl)nc2c1CCN(CCC13CCC(COC)(CC1)C3)C2` [Compound I-6, 4-(2-(2-((2,2′-dichloro-3′-(5-(2-(4-((methoxy)methyl)bicyclo[2.2.1]heptane-1-yl)ethyl)-1-(methyl-d3)-4,5,6,7-tetrahydro-1H-imidazo[4,5-c]pyridine-2-carboxamido)-[1,1′-biphenyl]-3-yl)carbamoyl)-1-(methyl-d3)-1,4,6,7-tetrahydro-5H-imidazo[4,5-c]pyridin-5-yl)ethyl)bicyclo[2.2.1]heptane-1-carboxylic acid] were 0.95 nM and 1 nM.
For the compound `[2H]C([2H])([2H])OCC12CCC(CCN3CCc4c(nc(C(=O)Nc5cccc(-c6cccc(NC(=O)c7nc8c(n7C([2H])([2H])[2H])CCN(CCC79CCC(C(=O)O)(CC7)C9)C8)c6Cl)c5C)n4C([2H])([2H])[2H])C3)(CC1)C2` [Compound I-9, 4-(2-(2-((2-chloro-3′-(5-(2-(4-((methoxy-d3)methyl)bicyclo[2.2.1]heptane-1-yl)ethyl)-1-(methyl-d3)-4,5,6,7-tetrahydro-1H-imidazo[4,5-c]pyridine-2-carboxamido)-2′-methyl-[1,1′-biphenyl]-3-yl)carbamoyl)-1-(methyl-d3)-1,4,6,7-tetrahydro-5H-imidazo[4,5-c]pyridin-5-yl)ethyl)bicyclo[2.2.1]heptane-1-carboxylic acid], the IC50 amounted to 3.42 nM in test [1] and 3.77 nM in test [2].
On to `[2H]C([2H])([2H])n1c(C(=O)Nc2cccc(-c3cccc(NC(=O)c4nc5c(n4C([2H])([2H])[2H])CCN(CCC46CCC(C(=O)O)(CC4)C6)C5)c3Cl)c2C)nc2c1CCN(CCC13CCC(COC)(CC1)C3)C2` [Compound I-10, 4-(2-(2-((2-chloro-3′-(5-(2-(4-(methoxymethyl)bicyclo[2.2.1]heptane-1-yl)ethyl)-1-(methyl-d3)-4,5,6,7-tetrahydro-1H-imidazo[4,5-c]pyridine-2-carboxamido)-2′-methyl-[1,1′-biphenyl]-3-yl)carbamoyl)-1-(methyl-d3)-1,4,6,7-tetrahydro-5H-imidazo[4,5-c]pyridin-5-yl)ethyl)bicyclo[2.2.1]heptane-1-carboxylic acid], for which the IC50 was found to be 4.26 nM in test [1] and 3.59 nM in test [2].
Turning to `[2H]C([2H])([2H])OCC12CCC(CCN3CCc4c(nc(C(=O)Nc5cccc(-c6cccc(NC(=O)c7nc8c(n7C([2H])([2H])[2H])CCN(CCC79CCC(C(=O)O)(CC7)C9)C8)c6C)c5Cl)n4C([2H])([2H])[2H])C3)(CC1)C2` [Compound I-11, 4-(2-(2-((2′-chloro-3′-(5-(2-(4-((methoxy-d3)methyl)bicyclo[2.2.1]heptane-1-yl)ethyl)-1-(methyl-d3)-4,5,6,7-tetrahydro-1H-imidazo[4,5-c]pyridine-2-carboxamido)-2-methyl-[1,1′-biphenyl]-3-yl)carbamoyl)-1-(methyl-d3)-1,4,6,7-tetrahydro-5H-imidazo[4,5-c]pyridin-5-yl)ethyl)bicyclo[2.2.1]heptane-1-carboxylic acid], the IC50 is 3.21 nM in test [1] and 4.21 nM in test [2].

These data come from patent publication US20260234164A1, “BIPHENYL COMPOUND AS IMMUNOMODULATOR, PREPARATION METHOD THEREFOR AND USE THEREOF” (SHENZHEN CHIPSCREEN BIOSCIENCES CO., LTD., priority 2021, published 2026).
